Test [1] concerns the target T1, Human immunodeficiency virus type 1 integrase (Human immunodeficiency virus 1, UniProt Q7ZJM1). Briefly: Displacement of [3H]GSK304649 from Human immunodeficiency virus 1 integrase by scintillation proximity assay. In general terms: Loss of bound radioactivity is the signal in a displacement assay; it reports binding, not function.
The subject of test [2] is Human immunodeficiency virus 1. It counts as functional, organism-based. The following applies: Human immunodeficiency virus 1, 3B, MT4.
The subject of test [3] is Human immunodeficiency virus 1. The test can be described thus: Antiviral activity against Human immunodeficiency virus 1 Ba-L infected in human PBMCs assessed as inhibition of viral replication. It counts as functional, organism-based.
The target in test [4] is T1, Human immunodeficiency virus type 1 integrase. Briefly: Displacement of 20 nM [3H]GSK304649 from Human immunodeficiency virus 1 integrase by scintillation proximity assay. For orientation: SPA uses beads or plates that emit light when radiolabelled molecules are held near them.
Test [5] deals with Human immunodeficiency virus 1. Briefly: Antiviral activity against Human immunodeficiency virus 1 Ba-L infected in human PBMCs assessed as inhibition of viral replication in presence of human serum. It counts as functional, organism-based.
The subject of test [6] is Human immunodeficiency virus 1. It counts as functional, organism-based. The settings on record: NL432, MT4.
Test [7] deals with Human immunodeficiency virus 1. It counts as functional, organism-based. The settings on record: NL432, MT4. The source holds these as a separate data set.
In test [8] the test system is Human immunodeficiency virus 1. It counts as functional, organism-based. The following applies: NL432, MT4. The source holds these as a separate data set.
Test [9] relates to Human immunodeficiency virus 1. Briefly: Antiviral activity against RTI-resistant Human immunodeficiency virus 1. It counts as functional, organism-based.
Test [10] has as its system Human immunodeficiency virus 1. The test can be described thus: Antiviral activity against PI-resistant Human immunodeficiency virus 1. It counts as functional, organism-based.
The test system of test [11] is Human immunodeficiency virus 1. Briefly: Antiviral activity against INI-resistant Human immunodeficiency virus 1 expressing integrase T66I mutant gene infected in human HeLa-CD4 cells after 3 days. It counts as functional.
The test system of test [12] is Human immunodeficiency virus 1. The test can be described thus: Antiviral activity against INI-resistant Human immunodeficiency virus 1 expressing integrase E92Q mutant gene infected in human HeLa-CD4 cells after 3 days. It counts as functional.
Test [13] has as its system Human immunodeficiency virus 1. The test can be described thus: Antiviral activity against INI-resistant Human immunodeficiency virus 1 expressing integrase T124A mutant gene infected in human HeLa-CD4 cells after 3 days. It counts as functional.
The test system of test [14] is Human immunodeficiency virus 1. Briefly: Antiviral activity against INI-resistant Human immunodeficiency virus 1 expressing integrase P145S mutant gene infected in human HeLa-CD4 cells after 3 days. It counts as functional.
Test [15] has as its system Human immunodeficiency virus 1. Briefly: Antiviral activity against INI-resistant Human immunodeficiency virus 1 expressing integrase Q146R mutant gene infected in human HeLa-CD4 cells after 3 days. It counts as functional.
Test [16] deals with Human immunodeficiency virus 1. The test can be described thus: Antiviral activity against INI-resistant Human immunodeficiency virus 1 expressing integrase S153Y mutant gene infected in human HeLa-CD4 cells after 3 days. It counts as functional.
In test [17] the test system is Human immunodeficiency virus 1. Briefly: Antiviral activity against INI-resistant Human immunodeficiency virus 1 expressing integrase M154I mutant gene infected in human HeLa-CD4 cells after 3 days. It counts as functional.
In test [18] the test system is Human immunodeficiency virus 1. The test can be described thus: Antiviral activity against INI-resistant Human immunodeficiency virus 1 expressing integrase T66K mutant gene infected in human HeLa-CD4 cells after 3 days. It counts as functional, organism-based.
The test system of test [19] is Human immunodeficiency virus 1. Briefly: Antiviral activity against INI-resistant Human immunodeficiency virus 1 expressing integrase F121Y mutant gene infected in human HeLa-CD4 cells after 3 days. It counts as functional, organism-based.
Test [20] concerns Human immunodeficiency virus 1. Briefly: Antiviral activity against INI-resistant Human immunodeficiency virus 1 expressing integrase Q148K mutant gene infected in human HeLa-CD4 cells after 3 days. It counts as functional, organism-based.
In test [21] the test system is Human immunodeficiency virus 1. Briefly: Antiviral activity against INI-resistant Human immunodeficiency virus 1 expressing integrase Q148R mutant gene infected in human HeLa-CD4 cells after 3 days. It counts as functional, organism-based.
Test [22] concerns Human immunodeficiency virus 1. Briefly: Antiviral activity against INI-resistant Human immunodeficiency virus 1 expressing integrase N155S mutant gene infected in human HeLa-CD4 cells after 3 days. It counts as functional, organism-based.
The target in test [23] is T1, Human immunodeficiency virus type 1 integrase. Briefly: Inhibition of Human immunodeficiency virus 1 integrase by strand transfer scintillation proximity assay.
Test [24] has as its system Human immunodeficiency virus. The test can be described thus: microbe, parasite or virus in culture. The following applies: Human immunodeficiency virus 1, MT4.
Description: Antiviral activity against vesicular stomatitis virus G-pseudotyped Human immunodeficiency virus infected in human MT-4 cells assessed as inhibition of viral replication

Activity calls are given as the source filed them. The calls are words filed in the database; no cut-off is given here.

T1 sequence (Q7ZJM1 whole entry): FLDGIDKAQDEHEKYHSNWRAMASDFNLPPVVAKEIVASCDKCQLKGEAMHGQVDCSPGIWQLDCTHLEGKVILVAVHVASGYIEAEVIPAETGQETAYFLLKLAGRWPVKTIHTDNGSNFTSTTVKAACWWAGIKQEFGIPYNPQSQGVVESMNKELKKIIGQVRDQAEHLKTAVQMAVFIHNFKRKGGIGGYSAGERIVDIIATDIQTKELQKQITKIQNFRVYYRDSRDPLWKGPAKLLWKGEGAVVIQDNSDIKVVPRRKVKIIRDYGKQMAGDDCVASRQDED

Regarding `Cn1c(=O)c(C(=O)NCCO)c(O)c2ncc(Cc3ccc(F)cc3)cc21` [GSK-364735], in test [1], the affinity, expressed as Kd, was 26 nM. Further, the EC50 (as a rule, the concentration giving half of the maximal effect) in test [2] turned out to be 5 nM; in test [3] it was 2 nM; in test [5], 42 nM; in test [24], 1.7 nM. Besides, the IC50 – broadly, the concentration needed to halve the response being measured – in test [4] came out at 11 nM; in test [9], 2.2 nM; in test [10], 2 nM; in test [23], 7.8 nM. Also, the result in [6], in [18], in test [19], in test [20], in test [21] and in test [22] was inactive. For the same compound, the Activity entry in test [7] and in test [8] was “Dose-dependent effect” in each case. Moreover, the “fold change (FC)” value in [11] is given as 1.2; in test [12], 3.7; in test [13], 1; in test [14], 1.4; in test [15], 1.7; in test [16], 1.4. In test [17], the “fold change (FC)” value came to 0.8.

As for `COc1cc2c(cc1Cc1cccc(Cl)c1F)c(=O)c(C(=O)O)cn2[C@H](CO)C(C)C`, the EC50 in test [2] amounted to 2 nM; in [3], 2 nM; in test [24], 1 nM.

On to `Cc1nnc(C(=O)NC(C)(C)c2nc(C(=O)NCc3ccc(F)cc3)c(O)c(=O)n2C)o1`, for which the EC50 in test [2] was 1.8 nM; in test [3] it was 2 nM; in test [24], 2 nM.

Regarding `O=C(NCc1ccc(F)cc1)c1nc(N2CCCCS2(=O)=O)c2cccnc2c1O`, the EC50 in [2] turned out to be 11 nM; in test [3] it was 3 nM; in test [24], 2.2 nM. Also, the IC50 in test [4] amounted to 13 nM. Binding in test [4] was characterised by a dissociation constant (Kd) of 3.3 nM. In test [6], the result was inactive. The Activity entry in test [7] and in test [8] was “Dose-dependent effect” throughout.

Turning to `O=C1Nc2ccc(Cl)cc2[C@@](C#CC2CC2)(C(F)(F)F)O1`, in [6], the outcome was inactive. Also, the Activity entry in test [7] and in [8] was “Dose-dependent effect” throughout.

The values are drawn from ChEMBL document CHEMBL1255253, “The naphthyridinone GSK364735 is a novel, potent human immunodeficiency virus type 1 integrase inhibitor and antiretroviral” (Antimicrob Agents Chemother, 2008).
